From ChEMBL document CHEMBL1201862, “PubChem BioAssay data set” (2004)
Activity calls are given as the source filed them.

Key:
[1] = cytotoxicity in KRAS-transformed pancreatic duct cells, primary screen, cell-based, fluorescence, HTS (AID 431); assay type: functional; conditions: Homo sapiens;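 also: cell line used: HPDE-C7K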
[2] = target: T1, Protein RecA (Mycobacterium tuberculosis, UniProt P9WHJ3); assay: Fluorescence Cell-Free Homogeneous Dose Retest to Identify Inhibitors of RecA-Intein Splicing Activity. [Related pubchem assays (depositor defined):AID2097, AID2223, AID489010, AID492950]; assay type: functional
T1 sequence (P9WHJ3 whole entry): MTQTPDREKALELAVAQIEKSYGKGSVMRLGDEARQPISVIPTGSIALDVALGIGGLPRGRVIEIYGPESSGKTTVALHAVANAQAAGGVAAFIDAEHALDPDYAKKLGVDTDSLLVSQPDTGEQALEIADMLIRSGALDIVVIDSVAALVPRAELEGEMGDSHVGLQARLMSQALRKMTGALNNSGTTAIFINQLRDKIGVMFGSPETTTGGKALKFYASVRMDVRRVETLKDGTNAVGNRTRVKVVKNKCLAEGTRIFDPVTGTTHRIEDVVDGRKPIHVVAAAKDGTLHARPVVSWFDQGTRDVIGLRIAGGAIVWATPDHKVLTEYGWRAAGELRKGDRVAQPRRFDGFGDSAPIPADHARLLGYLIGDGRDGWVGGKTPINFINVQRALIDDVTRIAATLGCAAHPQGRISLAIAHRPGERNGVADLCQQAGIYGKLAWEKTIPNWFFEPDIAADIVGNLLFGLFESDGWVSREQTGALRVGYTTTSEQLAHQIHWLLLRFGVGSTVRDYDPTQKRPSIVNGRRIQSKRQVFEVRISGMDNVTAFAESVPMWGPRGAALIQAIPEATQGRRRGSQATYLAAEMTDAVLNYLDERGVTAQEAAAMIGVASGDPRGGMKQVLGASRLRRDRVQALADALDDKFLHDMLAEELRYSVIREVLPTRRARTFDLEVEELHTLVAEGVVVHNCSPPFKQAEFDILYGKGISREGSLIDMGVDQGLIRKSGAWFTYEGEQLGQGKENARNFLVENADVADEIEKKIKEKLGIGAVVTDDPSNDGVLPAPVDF

[3] = target: T2, Replicative DNA helicase DnaB (Mycobacterium tuberculosis, UniProt P9WMR3); assay: DnaB intein splicing inhibitors, dose response, biochemical, cell-free fluorescence (AID 449749); assay type: functional
T2 sequence (P9WMR3 whole entry): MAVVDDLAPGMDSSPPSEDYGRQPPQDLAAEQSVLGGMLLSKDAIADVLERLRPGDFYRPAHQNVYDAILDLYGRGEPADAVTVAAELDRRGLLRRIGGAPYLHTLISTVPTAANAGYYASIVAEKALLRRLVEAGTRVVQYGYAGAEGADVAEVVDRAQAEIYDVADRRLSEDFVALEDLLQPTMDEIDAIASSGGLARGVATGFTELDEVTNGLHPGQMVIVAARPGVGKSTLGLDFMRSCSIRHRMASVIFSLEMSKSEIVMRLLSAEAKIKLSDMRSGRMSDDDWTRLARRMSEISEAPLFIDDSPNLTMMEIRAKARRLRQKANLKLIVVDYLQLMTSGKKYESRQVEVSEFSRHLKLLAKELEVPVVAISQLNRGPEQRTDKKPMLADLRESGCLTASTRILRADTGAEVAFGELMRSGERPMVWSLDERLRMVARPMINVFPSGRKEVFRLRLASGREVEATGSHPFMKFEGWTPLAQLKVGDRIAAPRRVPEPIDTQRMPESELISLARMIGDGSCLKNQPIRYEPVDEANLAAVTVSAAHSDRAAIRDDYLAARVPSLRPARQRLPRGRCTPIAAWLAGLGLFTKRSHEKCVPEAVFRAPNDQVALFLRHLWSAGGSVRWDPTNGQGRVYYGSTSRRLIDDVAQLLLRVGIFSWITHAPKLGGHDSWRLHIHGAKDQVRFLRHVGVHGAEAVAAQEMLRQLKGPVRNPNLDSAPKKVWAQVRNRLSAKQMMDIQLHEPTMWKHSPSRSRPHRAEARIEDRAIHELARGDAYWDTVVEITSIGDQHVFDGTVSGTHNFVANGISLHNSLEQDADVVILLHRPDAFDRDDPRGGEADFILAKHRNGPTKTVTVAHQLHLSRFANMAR

[4] = cytotoxicity in HPDE-C7 cells, cell-based, fluorescence, HTS (AID 430); assay type: functional; conditions: Homo sapiens
[5] = target: Mucolipin-3 (Homo sapiens, UniProt Q8TDD5); assay: Dose response cell-based high-throughput screening assay for agonists of the transient receptor potential channel ML3 (TRPML3). [Related pubchem assays: 1526, 1424, 1448 ]; assay type: functional
[6] = target: Ion channel NompC (Danio rerio, UniProt Q7T1G6); assay: Fluorescence counterscreen assay for TRPML3 agonists: dose response cell-based high-throughput screening assay to identify agonists of the transient receptor potential channel N1 (TRPN1). [Related pubchem assays: 1526, 1424, 1448 ]; assay type: functional
[7] = target: T3, Corticotropin-releasing factor receptor 2/Corticotropin-releasing factor-binding protein (Homo sapiens, UniProt P24387+Q13324); assay: activators of CRF receptor 2 with binding protein – uHTS hits, confirmation (AID 602473); assay type: functional; conditions: read-out: EC50_Mean
T3 sequence (Q13324 whole entry): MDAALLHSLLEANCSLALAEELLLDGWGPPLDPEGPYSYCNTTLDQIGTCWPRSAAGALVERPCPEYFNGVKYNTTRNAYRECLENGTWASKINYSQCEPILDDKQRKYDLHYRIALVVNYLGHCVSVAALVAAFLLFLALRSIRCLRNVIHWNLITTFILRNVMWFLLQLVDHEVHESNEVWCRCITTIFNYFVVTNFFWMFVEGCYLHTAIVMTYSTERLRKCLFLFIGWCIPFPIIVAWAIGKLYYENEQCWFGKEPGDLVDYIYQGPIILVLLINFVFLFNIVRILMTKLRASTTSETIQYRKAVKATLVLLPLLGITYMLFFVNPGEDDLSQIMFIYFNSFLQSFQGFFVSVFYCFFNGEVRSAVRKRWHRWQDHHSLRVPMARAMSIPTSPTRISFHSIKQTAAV
T3 sequence (P24387 whole entry): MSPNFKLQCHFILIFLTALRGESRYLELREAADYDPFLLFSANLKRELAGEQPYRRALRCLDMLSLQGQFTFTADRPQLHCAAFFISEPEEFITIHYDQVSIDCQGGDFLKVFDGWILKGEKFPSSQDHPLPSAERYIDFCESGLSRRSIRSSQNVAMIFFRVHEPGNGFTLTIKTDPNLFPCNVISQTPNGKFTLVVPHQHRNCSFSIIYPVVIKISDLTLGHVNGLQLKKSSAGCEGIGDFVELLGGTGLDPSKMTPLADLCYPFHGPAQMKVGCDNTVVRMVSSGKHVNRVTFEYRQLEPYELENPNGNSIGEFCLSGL

[8] = target: Beta-lactamase (Pseudomonas aeruginosa, UniProt Q79MP6);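 also: biochemical dose-response test of metallo-beta-lactamase enzyme inhibition, read out by epi-absorbance; purified recombinant IMP-1 metallo-beta-lactamase with nitrocefin as substrate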
[9] = target: Voltage-dependent T-type calcium channel subunit alpha-1H (Homo sapiens, UniProt O95180); assay type: functional;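 also: channel activity triggered by adding a high calcium stimulation buffer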
[10] = target: Luciferin 4-monooxygenase (Photinus pyralis, UniProt P08659); assay: Counter Screen for Luciferase-based Assay Positives. [Related pubchem assays: 620, 618, 411 ]
[11] = target: Beta-lactamase (Salmonella choleraesuis (strain SC-B67), UniProt Q5J463)
[12] = target: Protein-tyrosine kinase 2-beta (Homo sapiens, UniProt Q14289);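 also: potency of inhibitors of PYK2 kinase phosphorylation of poly-GT substrate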
[13] = test system: HT-1080; assay: cytotoxicity in HT1080 fibrosarcoma cells, cell-based, fluorescence readout (AID 620); assay type: functional; conditions: Homo sapiens
[14] = growth suppression of beta-catenin-knockout colon cells, dose response, cell-based, HCT116, human colon tumor (AID 1045); assay type: functional;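 also: HCT116 colon tumor cells with beta catenin knocked out; cells exposed to compound for 60 hours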
[15] = target: T4, Apoptotic protease-activating factor 1 (Homo sapiens, UniProt O14727); assay type: functional
T4 sequence (O14727 whole entry): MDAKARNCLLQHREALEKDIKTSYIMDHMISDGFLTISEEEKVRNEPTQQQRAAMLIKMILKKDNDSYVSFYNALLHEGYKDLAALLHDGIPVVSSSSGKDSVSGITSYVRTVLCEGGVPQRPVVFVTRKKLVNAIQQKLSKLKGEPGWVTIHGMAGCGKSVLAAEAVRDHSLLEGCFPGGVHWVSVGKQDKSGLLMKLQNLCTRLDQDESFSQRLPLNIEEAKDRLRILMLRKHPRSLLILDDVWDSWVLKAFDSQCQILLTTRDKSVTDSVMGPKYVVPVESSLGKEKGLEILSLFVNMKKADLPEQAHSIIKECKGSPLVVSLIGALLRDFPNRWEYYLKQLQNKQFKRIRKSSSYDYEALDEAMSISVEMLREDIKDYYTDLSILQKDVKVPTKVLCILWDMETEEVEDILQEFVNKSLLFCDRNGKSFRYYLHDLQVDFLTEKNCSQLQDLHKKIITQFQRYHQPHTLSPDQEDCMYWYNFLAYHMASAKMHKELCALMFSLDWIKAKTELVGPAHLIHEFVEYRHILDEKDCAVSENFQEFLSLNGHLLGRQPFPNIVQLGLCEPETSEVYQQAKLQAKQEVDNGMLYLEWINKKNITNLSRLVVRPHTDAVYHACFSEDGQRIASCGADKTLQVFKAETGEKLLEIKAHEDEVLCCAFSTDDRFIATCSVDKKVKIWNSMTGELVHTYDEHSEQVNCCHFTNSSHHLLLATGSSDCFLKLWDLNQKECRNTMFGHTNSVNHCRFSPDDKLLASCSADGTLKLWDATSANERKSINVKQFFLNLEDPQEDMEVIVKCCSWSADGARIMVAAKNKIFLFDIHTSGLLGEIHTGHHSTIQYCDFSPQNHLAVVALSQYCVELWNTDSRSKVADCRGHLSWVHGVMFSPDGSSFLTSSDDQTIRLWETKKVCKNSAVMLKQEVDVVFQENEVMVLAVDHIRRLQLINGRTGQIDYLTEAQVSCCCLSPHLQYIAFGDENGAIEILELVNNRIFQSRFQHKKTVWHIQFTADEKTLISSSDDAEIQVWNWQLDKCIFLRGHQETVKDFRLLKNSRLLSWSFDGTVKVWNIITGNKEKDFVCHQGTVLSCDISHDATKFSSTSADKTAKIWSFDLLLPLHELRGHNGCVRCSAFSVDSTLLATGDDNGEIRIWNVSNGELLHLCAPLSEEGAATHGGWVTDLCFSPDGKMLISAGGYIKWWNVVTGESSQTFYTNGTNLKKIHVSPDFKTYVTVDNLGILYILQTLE

[16] = growth suppression of PTEN-null colon cells, dose response, cell-based, HCT116 PTEN knockout (AID 1047); assay type: functional;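 also: HCT116 colon tumor cells with PTEN knocked out; cells exposed to compound for 60 hours before readout; potency for loss of cell viability measured by luminescence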
[17] = target: T5, Estrogen receptor beta (Homo sapiens, UniProt Q92731); assay: ERβ–SRC-3 coactivator interaction inhibitors, confirmation, orthogonal assay, biochemical, ELISA, streptavidin-HRP readout (AID 1060)
[18] = target: T5, Estrogen receptor beta
[19] = Luminescence Cell-Based Dose Response HTS to Identify Inhibitors of 5'UTR Stem-Loop Driven Prion Protein mRNA Translation in H4 Neuroglioblastoma Cells. [Related pubchem assays: 1827 (Project Summary), 1813 (Primary HTS)]; assay type: functional
[20] = inhibitors of firefly luciferase expression or activity, dose response, H4 neuroglioma cells, luminescence (AID 1990); assay type: functional, cell-based
[21] = inhibitors of SNCA 5'UTR-driven reporter translation, confirmation, H4 neuroglioma cells, luminescence (AID 1988); assay type: functional, cell-based
[22] = target: Estrogen receptor (Homo sapiens, UniProt P03372);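 also: potency for inhibiting coactivator peptide recruitment to the receptor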

T5 sequence (Q92731 whole entry): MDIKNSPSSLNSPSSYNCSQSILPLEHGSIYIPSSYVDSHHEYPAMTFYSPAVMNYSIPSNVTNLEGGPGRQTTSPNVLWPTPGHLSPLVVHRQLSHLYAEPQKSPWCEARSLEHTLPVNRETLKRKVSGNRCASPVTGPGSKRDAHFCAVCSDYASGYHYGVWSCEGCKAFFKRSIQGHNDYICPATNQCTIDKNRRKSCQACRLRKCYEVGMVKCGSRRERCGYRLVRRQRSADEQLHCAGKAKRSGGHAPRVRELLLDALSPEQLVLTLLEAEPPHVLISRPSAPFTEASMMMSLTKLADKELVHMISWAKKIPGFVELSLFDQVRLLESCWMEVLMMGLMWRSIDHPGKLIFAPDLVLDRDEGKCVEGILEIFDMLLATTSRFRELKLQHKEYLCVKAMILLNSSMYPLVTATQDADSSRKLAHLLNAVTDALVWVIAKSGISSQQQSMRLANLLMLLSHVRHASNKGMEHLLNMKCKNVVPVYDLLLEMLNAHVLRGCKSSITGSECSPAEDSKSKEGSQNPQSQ
Luciferin 4-monooxygenase, sequence (P08659 whole entry): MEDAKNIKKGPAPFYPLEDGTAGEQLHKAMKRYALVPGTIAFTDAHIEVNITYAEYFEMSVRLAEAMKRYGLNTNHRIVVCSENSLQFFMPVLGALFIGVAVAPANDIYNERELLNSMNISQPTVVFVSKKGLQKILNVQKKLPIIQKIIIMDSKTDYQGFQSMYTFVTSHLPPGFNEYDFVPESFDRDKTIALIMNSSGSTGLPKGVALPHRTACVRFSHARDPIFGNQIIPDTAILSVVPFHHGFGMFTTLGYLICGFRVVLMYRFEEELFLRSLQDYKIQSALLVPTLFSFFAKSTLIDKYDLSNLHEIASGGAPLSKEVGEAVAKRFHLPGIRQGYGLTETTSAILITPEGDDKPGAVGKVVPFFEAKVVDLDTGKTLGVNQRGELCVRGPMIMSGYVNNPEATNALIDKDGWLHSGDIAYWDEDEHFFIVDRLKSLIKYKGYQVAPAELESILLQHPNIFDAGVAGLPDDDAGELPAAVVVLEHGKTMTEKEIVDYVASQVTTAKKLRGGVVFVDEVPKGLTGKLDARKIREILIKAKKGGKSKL
Ion channel NompC, sequence (Q7T1G6 whole entry): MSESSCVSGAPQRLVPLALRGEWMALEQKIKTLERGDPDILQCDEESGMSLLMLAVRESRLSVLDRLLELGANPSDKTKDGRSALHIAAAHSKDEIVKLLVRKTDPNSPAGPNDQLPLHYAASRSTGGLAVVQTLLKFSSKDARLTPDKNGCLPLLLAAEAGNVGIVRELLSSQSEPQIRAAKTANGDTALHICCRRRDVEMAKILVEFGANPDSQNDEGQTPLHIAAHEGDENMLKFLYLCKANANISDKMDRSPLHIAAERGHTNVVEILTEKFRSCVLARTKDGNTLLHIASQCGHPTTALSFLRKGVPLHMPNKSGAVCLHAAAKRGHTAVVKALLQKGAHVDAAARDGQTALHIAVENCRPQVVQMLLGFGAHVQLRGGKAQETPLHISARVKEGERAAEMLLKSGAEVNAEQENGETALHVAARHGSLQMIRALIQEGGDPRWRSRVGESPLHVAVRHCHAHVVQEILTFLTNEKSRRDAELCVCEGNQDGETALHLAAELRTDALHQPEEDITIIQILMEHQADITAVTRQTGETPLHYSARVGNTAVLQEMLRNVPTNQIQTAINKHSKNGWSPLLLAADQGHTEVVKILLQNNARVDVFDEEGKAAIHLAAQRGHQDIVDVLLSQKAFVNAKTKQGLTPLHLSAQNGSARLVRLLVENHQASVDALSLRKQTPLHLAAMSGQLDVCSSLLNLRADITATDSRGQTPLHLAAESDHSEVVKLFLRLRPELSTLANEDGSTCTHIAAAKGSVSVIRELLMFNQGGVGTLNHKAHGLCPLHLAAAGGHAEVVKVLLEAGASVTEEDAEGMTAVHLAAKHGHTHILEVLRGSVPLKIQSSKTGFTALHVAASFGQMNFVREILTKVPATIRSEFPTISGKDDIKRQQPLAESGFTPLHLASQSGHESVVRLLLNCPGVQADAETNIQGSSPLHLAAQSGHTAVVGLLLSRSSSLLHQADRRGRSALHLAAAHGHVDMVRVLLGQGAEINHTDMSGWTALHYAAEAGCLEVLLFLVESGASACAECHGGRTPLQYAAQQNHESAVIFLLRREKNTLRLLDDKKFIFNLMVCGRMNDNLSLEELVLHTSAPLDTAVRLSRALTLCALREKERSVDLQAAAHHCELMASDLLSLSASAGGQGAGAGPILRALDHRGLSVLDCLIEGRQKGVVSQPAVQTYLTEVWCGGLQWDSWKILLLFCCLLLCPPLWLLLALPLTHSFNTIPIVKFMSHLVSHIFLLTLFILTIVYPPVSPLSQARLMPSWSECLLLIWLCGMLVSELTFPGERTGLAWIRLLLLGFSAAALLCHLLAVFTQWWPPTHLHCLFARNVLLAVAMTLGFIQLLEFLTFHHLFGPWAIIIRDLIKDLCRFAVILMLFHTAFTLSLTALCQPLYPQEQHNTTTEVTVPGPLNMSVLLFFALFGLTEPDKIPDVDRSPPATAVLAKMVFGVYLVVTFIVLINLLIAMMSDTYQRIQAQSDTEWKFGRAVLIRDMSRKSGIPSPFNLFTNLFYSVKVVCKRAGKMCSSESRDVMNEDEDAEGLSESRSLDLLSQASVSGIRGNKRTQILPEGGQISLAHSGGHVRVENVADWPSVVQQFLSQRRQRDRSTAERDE
Mucolipin-3, sequence (Q8TDD5 whole entry): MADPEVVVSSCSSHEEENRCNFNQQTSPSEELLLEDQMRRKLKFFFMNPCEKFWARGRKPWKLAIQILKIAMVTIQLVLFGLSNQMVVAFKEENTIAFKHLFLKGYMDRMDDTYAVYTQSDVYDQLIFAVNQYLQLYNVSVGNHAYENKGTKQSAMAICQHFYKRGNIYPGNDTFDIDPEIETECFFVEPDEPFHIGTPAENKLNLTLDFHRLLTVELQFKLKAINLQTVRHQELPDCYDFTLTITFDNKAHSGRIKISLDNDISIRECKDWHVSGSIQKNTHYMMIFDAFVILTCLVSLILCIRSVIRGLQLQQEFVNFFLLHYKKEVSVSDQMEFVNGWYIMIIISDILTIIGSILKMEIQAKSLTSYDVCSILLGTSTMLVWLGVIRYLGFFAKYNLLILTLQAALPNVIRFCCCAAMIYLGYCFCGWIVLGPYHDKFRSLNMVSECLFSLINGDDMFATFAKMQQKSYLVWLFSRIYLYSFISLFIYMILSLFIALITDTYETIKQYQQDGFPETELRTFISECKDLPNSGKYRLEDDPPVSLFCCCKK
Beta-lactamase (Pseudomonas aeruginosa, UniProt Q79MP6), sequence (Q79MP6 whole entry): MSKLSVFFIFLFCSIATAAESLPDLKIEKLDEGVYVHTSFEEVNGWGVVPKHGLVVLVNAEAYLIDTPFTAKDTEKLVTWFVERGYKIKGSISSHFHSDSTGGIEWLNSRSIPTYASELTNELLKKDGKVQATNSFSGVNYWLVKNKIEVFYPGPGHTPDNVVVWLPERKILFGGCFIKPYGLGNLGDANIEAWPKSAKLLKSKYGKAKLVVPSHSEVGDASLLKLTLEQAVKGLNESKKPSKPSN
Protein-tyrosine kinase 2-beta, sequence (Q14289 whole entry): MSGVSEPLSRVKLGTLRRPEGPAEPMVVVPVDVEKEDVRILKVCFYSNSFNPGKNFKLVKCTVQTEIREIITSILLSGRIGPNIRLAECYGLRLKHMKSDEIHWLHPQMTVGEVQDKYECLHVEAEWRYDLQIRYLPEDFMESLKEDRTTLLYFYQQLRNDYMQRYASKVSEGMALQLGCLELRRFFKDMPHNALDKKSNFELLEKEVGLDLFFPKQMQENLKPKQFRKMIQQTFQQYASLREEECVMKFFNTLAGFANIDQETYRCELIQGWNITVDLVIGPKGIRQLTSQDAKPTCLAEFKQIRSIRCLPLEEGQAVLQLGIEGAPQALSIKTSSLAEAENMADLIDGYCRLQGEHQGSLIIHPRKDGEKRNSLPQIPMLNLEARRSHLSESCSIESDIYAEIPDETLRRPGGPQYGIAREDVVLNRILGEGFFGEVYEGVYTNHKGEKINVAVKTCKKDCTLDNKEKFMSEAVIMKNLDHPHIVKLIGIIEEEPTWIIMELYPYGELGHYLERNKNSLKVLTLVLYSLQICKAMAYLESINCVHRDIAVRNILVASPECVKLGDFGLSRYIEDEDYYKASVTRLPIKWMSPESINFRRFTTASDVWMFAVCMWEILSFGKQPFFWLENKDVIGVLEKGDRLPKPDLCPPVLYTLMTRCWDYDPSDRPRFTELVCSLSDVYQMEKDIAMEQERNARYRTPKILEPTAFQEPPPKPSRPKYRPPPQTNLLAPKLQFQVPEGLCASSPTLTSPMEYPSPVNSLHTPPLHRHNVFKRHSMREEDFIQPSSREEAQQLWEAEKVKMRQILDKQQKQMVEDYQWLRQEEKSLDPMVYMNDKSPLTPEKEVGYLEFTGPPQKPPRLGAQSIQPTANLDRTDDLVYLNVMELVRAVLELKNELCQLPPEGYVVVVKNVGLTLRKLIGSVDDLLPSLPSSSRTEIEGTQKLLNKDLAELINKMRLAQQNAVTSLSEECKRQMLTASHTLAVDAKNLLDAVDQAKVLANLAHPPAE
Beta-lactamase (Salmonella choleraesuis (strain SC-B67), UniProt Q5J463), sequence (Q5J463 whole entry): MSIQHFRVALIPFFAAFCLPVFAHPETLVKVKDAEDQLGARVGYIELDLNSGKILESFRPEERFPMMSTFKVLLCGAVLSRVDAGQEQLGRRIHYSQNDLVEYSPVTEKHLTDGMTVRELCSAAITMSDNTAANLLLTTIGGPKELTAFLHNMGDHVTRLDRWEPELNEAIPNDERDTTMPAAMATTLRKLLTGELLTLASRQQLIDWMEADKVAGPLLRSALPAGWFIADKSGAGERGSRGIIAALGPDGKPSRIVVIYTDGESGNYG

In the case of COc1ccc(-c2nnc(SC(=O)N3c4ccccc4Sc4ccccc43)o2)cc1, the EC50 [1] is reported as 8.96 µM (active), the EC50 [2] is reported as 0.451 µM (active) and the AC50 [3] is reported as 1.79 µM (active). For the same compound, the EC50 [4] was 12.5 µM (active).

For O=C(c1ccc([N+](=O)[O-])cc1)N(Cc1ccc(Cl)cc1Cl)N1C(=O)CCCC1=O, the EC50 [5] was > 29.9 µM (not active), the EC50 [6] was > 29.9 µM (not active) and the EC50 [7] was > 53 µM (inactive).

In the case of CCN(CC)c1ccc2cc(-c3nc4ccccc4[nH]3)c(=O)oc2c1, the IC50 [8] is reported as 3.24 µM (active), the EC50 [9] is reported as 0.434 µM (active) and the EC50 [10] is reported as < 0.2 µM (active). The IC50 [11] was 0.709 µM (active), the IC50 [12] was 2.32 µM (active) and the EC50 [13] was > 50 µM (not active).

For Nc1c(C(=O)NCc2ccc3c(c2)OCO3)c2nc3ccccc3nc2n1CCCN1CCOCC1, the EC50 [14] was 20.2 µM (active), the EC50 [1] was 13.2 µM (active) and the IC50 [15] was 76.8 µM (active). For the same compound, the EC50 [4] was 9.92 µM (active) and the EC50 [16] was 20.6 µM (active).

With CC12CCC(=O)N1C(C(=O)OCC(=O)Nc1sccc1C#N)CS2 (centres undefined) the IC50 [17] was 0.118 µM (not active) and the IC50 [18] was 14.4 µM (active).

With CC(C)N(C(=O)c1ccc2nc(-c3ccccc3)c(-c3ccccc3)nc2c1)C(C)C the EC50 [5] was 1.52 µM (active) and the EC50 [6] was > 29.9 µM (not active).

With O=c1c(Cl)c(N2CCCCC2)cnn1-c1nc2ccccc2[nH]1 the EC50 [19] was 34.4 µM (active), the EC50 [10] was 4.25 µM (active) and the EC50 [20] was 2.55 µM (active). The EC50 [21] was 2.68 µM (active) and the EC50 [13] was > 50 µM (not active).

For C/N=C1\SC(CC(=O)Nc2ccc(C(C)=O)cc2)C(=O)N1C (centres undefined), the IC50 [22] was > 50 µM (not active) and the IC50 [18] was > 50 µM (not active).
